Tests used:
[1] = test system: NOP receptor (control neurons); details: electrophysiology; cited from earlier work
[2] = test system: NOP receptor (transfected neurons); details: electrophysiology; cited from earlier work
CHO cells = assay: DMR in wild type CHO cells; details: for DMR response, CHO: CHO cells, pm ± sem
human NOP receptor [3] = biological target: T1, human NOP receptor (Homo sapiens, UniProt P41146); assay: DMR assay in CHONOP cells, agonist effects; details: for DMR response, CHONOP: pm ± sem; for Emax: DMR maximal effect; for maximal effects compared with N/OFQ: DMR; for pEC50: DMR peak, at least 3 experiments in triplicate, inactive = no DMR response up to 1 μM, parentheses: CL95% (Fig 3)
T1 sequence (P41146 whole entry): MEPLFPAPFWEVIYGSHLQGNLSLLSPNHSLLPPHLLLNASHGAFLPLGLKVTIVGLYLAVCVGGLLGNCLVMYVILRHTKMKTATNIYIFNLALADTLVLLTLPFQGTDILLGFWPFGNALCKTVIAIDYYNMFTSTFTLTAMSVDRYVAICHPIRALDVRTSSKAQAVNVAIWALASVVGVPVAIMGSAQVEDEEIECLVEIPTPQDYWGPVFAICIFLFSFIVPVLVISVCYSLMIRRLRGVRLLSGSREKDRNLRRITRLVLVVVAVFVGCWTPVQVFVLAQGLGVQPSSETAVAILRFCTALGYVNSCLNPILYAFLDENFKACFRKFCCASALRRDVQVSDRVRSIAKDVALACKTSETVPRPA

[4] = biological target: human Nociceptin/Orphanin FQ (N/OFQ) peptide NOP receptor (human) (UniProt P41146)
Chain of human Nociceptin/Orphanin FQ (N/OFQ) peptide NOP receptor (human) (P41146 whole entry): as above

[5] = biological target: human Nociceptin/Orphanin FQ (N/OFQ) peptide NOP receptor (human) (UniProt P41146); remark: listed apart in the source
human NOP receptor [6] = biological target: T1, human NOP receptor; assay: DMR assay in CHONOP cells, antagonism of agonist concentration response curve
NOP receptor = details: cited from earlier work
Source text: This is in general in line with literature reports (see Table 2 of [3] that summarizes the action of these compounds in various assays/preparations at human recombinant and rodent native NOP receptors). However, there are some aspects that deserve attention.

human NOP receptor [7] = biological target: T1, human NOP receptor; assay type: cell-based; set-up: expressed in transfected cells; details: comparison N/OFQ and Ac-RYYRIK-NH2
mu opioid receptor = mu opioid receptor (UniProt P35372)
Chain of mu opioid receptor (P35372 whole entry): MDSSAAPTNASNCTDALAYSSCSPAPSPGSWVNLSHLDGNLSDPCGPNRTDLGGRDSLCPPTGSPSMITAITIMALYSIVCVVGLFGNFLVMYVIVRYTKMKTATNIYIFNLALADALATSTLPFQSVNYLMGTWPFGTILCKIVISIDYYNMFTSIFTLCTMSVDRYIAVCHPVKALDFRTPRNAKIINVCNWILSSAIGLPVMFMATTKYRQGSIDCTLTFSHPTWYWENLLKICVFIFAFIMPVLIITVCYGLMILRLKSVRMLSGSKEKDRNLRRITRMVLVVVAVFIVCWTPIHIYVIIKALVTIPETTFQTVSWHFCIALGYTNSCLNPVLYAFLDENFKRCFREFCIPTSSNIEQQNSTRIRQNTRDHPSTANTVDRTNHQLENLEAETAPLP

human NOP receptor [8] = biological target: T1, human NOP receptor; assay: Classical Schild protocol, DMR in CHONOP cells
[9] = CHONOP cells, 100 μM, * p < 0.05 vs buffer
[10] = 1 μM, 37°C, * p < 0.05 vs buffer (one-way ANOVA, Dunnett's)
[11] = CHONOP cells, 1 μM, 37°C, * p < 0.05 vs buffer (one-way ANOVA, Dunnett's)

Compound: CCn1c(=O)n(C2=C(CO)CN(CC3CCCCCCC3)CC2)c2ccccc21 [Trap-101]
- activity in control neurons [1]: pure antagonists
- activity in NOP transfected neurons [2]: inverse agonists

Compound: C=C[C@@]1(C)CC(=O)[C@]2(O)[C@@]3(C)[C@@H](O)CCC(C)(C)[C@@H]3[C@H](O)[C@H](OC(C)=O)[C@@]2(C)O1 [FSK]
- DMR response, CHO (CHO cells; 100 μM, * p < 0.05 vs buffer): -172±23 ^* pm
- DMR response, CHONOP (human NOP receptor [3]; [9]): -164±15 ^* pm

Compound: [F/G]N/OFQ(1–13)-NH2 (peptide)
- DMR response at 1 μM, CHONOP cells [4]: 200 pm
- intrinsic activity α (Emax relative to N/OFQ), DMR, CHONOP cells (relative to N/OFQ) [5]: 0.98
- pEC50 of the DMR response (peak), CHONOP cells [5]: 8.06 -log10(M)

Compound: [Nphe^1]N/OFQ(1–13)-NH2 (peptide)
- DMR response at 1 μM, CHONOP cells [4]: 180 pm

Compound: CC[C@H](C)[C@H](NC(=O)[C@H](CCCNC(=N)N)NC(=O)[C@H](Cc1ccc(O)cc1)NC(=O)[C@H](Cc1ccc(O)cc1)NC(=O)[C@H](CCCNC(=N)N)NC(C)=O)C(=O)N[C@@H](CCCCN)C(N)=O [Ac-RYYRIK-NH2]
- sensitivity of DMR response to SB-612111 (human NOP receptor [6]; comparison N/OFQ and Ac-RYYRIK-NH2): equally sensitive to PTX and to the NOP selective antagonist SB-612111
- DMR response, CHO (CHO cells; [10]): 17±8 pm
- intrinsic activity (α) (human NOP receptor [3]): 0.89
- Emax (human NOP receptor [3]; CHONOP cells): 182
- DMR response, CHONOP (human NOP receptor [3]; [11]): 182±11 ^* pm
- maximal effects compared with N/OFQ (human NOP receptor [3]; CHONOP): not statistically different to those of N/OFQ
- negative DMR signal (human NOP receptor [3]; after 1000 sec, in some but not all experiments): concentration dependent negative signal after 1000 sec
- efficacy vs N/OFQ, GTPγS binding (NOP receptor): significantly lower efficacy than N/OFQ
- efficacy vs N/OFQ, NOP/G protein interaction (NOP receptor): significantly lower efficacy than N/OFQ
- sensitivity of DMR response to PTX (human NOP receptor [7]): equally sensitive to PTX

Compound: PWT2-N/OFQ (peptide)
- DMR response at 0.1 μM, CHONOP cells [4]: 198 pm
- intrinsic activity α (Emax relative to N/OFQ), DMR, CHONOP cells (relative to N/OFQ) [5]: 0.97
- pEC50 of the DMR response (peak), CHONOP cells, tested up to 0.1 μM [5]: 8 -log10(M)

Compound: C[C@H](NC(=O)CNC(=O)[C@@H](NC(=O)[C@H](Cc1ccccc1)NC(=O)CNC(=O)CNC(=O)CNCc1ccccc1)[C@@H](C)O)C(=O)N[C@@H](CCCNC(=N)N)C(=O)N[C@@H](CCCCN)C(=O)N[C@@H](CO)C(=O)N[C@@H](C)C(=O)N[C@@H](CCCNC(=N)N)C(=O)N[C@@H](CCCCN)C(=O)N[C@@H](CCCNC(=N)N)C(=O)N[C@@H](CCCCN)C(=O)N[C@@H](CC(N)=O)C(=O)N[C@@H](CCC(N)=O)C(N)=O [UFP-101, [Nphe1,Arg14,Lys15]nociceptin-NH2]
- Kb (human NOP receptor [6]): 25.1 nM
- pEC50 (human NOP receptor [3]; CHONOP cells, 37°C): crc incomplete
- stimulatory effect per se (human NOP receptor [3]; CHONOP, % of the maximal effects of N/OFQ): ~20%

Compound: O=C1NCN(c2ccccc2)C12CCN(C1Cc3cccc4cccc1c34)CC2 (centres unmarked) [Ro 65–6570]
- activity in wild type CHO cells (CHO cells; 10 μM): exhibited a DMR response in wild type CHO cells
- DMR response, CHO (CHO cells; [10]): 23±8 pm

Compound: UFP-101 (peptide)
- DMR response at 1 μM, CHONOP cells (not marked as different from buffer) [4]: 40 pm
- pKB (antagonist potency): rightward shift by 1 μM UFP-101 of the concentration response curve to N/OFQ at the NOP receptor, DMR, CHONOP cells [5]: 7.6 -log10(M)

Compound: CC(C)C1CCC(N2CCC(N3C(=O)C(=O)c4ccccc43)CC2)CC1 (centres unmarked) [AT-090]
- DMR response, CHO (CHO cells; [10]): 21±3 pm
- intrinsic activity (α) (human NOP receptor [3]): 1.23
- Emax (human NOP receptor [3]; CHONOP cells): 252
- DMR response, CHONOP (human NOP receptor [3]; [11]): 252±15 ^* pm
- maximal effects compared with N/OFQ (human NOP receptor [3]; CHONOP): not statistically different to those of N/OFQ
- efficacy vs N/OFQ, GTPγS binding (NOP receptor): significantly lower efficacy than N/OFQ
- efficacy vs N/OFQ, NOP/G protein interaction (NOP receptor): significantly lower efficacy than N/OFQ

Compound: C=CCN1CC[C@]23c4c5ccc(O)c4O[C@H]2C(=O)CC[C@@]3(O)[C@H]1C5 [Naloxone]
- DMR response, CHO (CHO cells; [10]): 23±5 pm

Compound: Nc1ncnc2c1ncn2[C@@H]1O[C@H](COP(=O)(O)OP(=O)(O)OP(=O)(O)O)[C@@H](O)[C@H]1O [ATP]
- DMR response, CHO (CHO cells; 100 μM, * p < 0.05 vs buffer): 177±15 ^* pm
- DMR response, CHONOP (human NOP receptor [3]; [9]): 185±12 ^* pm

Compound: [Arg^14,Lys^15]N/OFQ (peptide)
- DMR response at 1 μM, CHONOP cells [4]: 271 pm

Compound: Dermorphin (peptide)
- pEC50 of the DMR response, CHO cells expressing the mu opioid receptor (mu opioid receptor): 8.59 -log10(M)

Compound: Cc1cccc2c1CC[C@H](CN1CCC(c3c(Cl)cccc3Cl)CC1)C[C@@H]2O [SB-612111, (-)-cis-1-methyl-7-[[4-(2,6-dichlorophenyl)piperidin-1-yl]methyl]-6,7,8,9-tetrahy dro-5H-benzocyclohepten-5-ol]
- DMR response, CHO (CHO cells; [10]): 26±3 pm
- effect per se in CHONOP cells (human NOP receptor [3]; CHONOP cells): did not produce any effect per se
- pEC50 (human NOP receptor [3]; CHONOP cells, 37°C): inactive
- DMR response, CHONOP (human NOP receptor [3]; [11]): -10±9 pm
- effect on N/OFQ maximal effects (Schild) (human NOP receptor [8]; 10 nM–1 μM): without significantly affecting its maximal effects
- Schild slope (human NOP receptor [8]; vs N/OFQ, Schild plot): ~1

Compound: Ac-RYYRIK-NH2 (peptide)
- DMR response at 1 μM, CHONOP cells [4]: 182 pm

Compound: UFP-112 (peptide)
- DMR response at 1 μM, CHONOP cells [4]: 248 pm
- intrinsic activity α (Emax relative to N/OFQ), DMR, CHONOP cells (relative to N/OFQ) [5]: 1.21
- pEC50 of the DMR response (peak), CHONOP cells [5]: 8.66 -log10(M)

Reference: paper PMC6117024, “NOP receptor pharmacological profile – A dynamic mass redistribution study” (PLoS ONE, 2018)
